The record followed here is ChEMBL document CHEMBL5674860, “Optimized Dual-Glo Assay to identify co-culture-induced drug vulnerabilities in 3D CRC models” (2024).

Each structure is given as a SMILES string. Square brackets hold non-standard residues; d marks the D form. Peptide text beside a SMILES is read from it. Arg(Me) = CNC(=N)NCCC[C@H](N)C(=O)O; d4Pal = N[C@H](Cc1ccncc1)C(=O)O; azaGly = NNC(=O)O

What all share (format): functional, Homo sapiens
Holding throughout (parameters): dose or concentration left out as unconfirmed

For assay [1], the system named is Colon cancer organoid. Put plainly: Optimized Dual-Glo assay to identify co-culture induced drug vulnerabilities using donated chemical probes and chemogenomics kinase set in O20 CRC organoid and F20 CAF mono and co-culture. […] Cell viability is reported both mono and co-culture models.
The test system of assay [2] is Colon cancer organoid. As to the kind of experiment: Optimized Dual-Glo assay to identify co-culture induced drug vulnerabilities using donated chemical probes and chemogenomics kinase set in O14 CRC organoid and F14 CAF mono and co-culture. […] Cell viability is reported both mono and co-culture models.
The subject of assay [3] is Colon cancer organoid. Put plainly: Optimized Dual-Glo assay to identify co-culture induced drug vulnerabilities using donated chemical probes and chemogenomics kinase set in O06 CRC organoid and F06 CAF mono and co-culture. […] Cell viability is reported both mono and co-culture models.
Where [4] appears, read: Culture type Co-Culture, Transduced with Lucferase2-P2A-EGFP lentivirus.
Where [5] appears, read: Culture type Co-Culture, Transduced with Renilla-dsRed lentivirus.
The mark [6] stands for this setting: Culture type Mono-Culture, Transduced with Lucferase2-P2A-EGFP lentivirus.
Where [7] appears, read: Culture type Mono-Culture, Transduced with Renilla-dsRed lentivirus.

For `COc1cc2ncn(-c3cc(OCc4ccccc4C(F)(F)F)c(C(N)=O)s3)c2cc1OC` [GW843682X], the “Cell Viability” value stood at 89.2195% in the assay on Colon cancer organoid [1] (setting [4]); 152.214% in the assay on Colon cancer organoid [1] (setting [5]); 57.1216% in the assay with Colon cancer organoid [1] (setting [6]); 108.759% with Colon cancer organoid [1] (setting [7]); 8.715% in the assay on Colon cancer organoid [2] (setting [4]); 209.484% with Colon cancer organoid [2] (setting [5]). Also, the “Cell Viability” value turned out to be 23.2418% in the assay with Colon cancer organoid [2] (setting [6]); 105.344% in the assay with Colon cancer organoid [2] (setting [7]); 4.781% in the assay on Colon cancer organoid [3] (setting [4]); 182.458% in the assay with Colon cancer organoid [3] (setting [5]); 3.81% in the assay with Colon cancer organoid [3] (setting [6]); 121.646% in the assay with Colon cancer organoid [3] (setting [7]).
On to `CCOc1cc2ncc(C#N)c(Nc3ccc(OCc4cccc(F)c4)c(Cl)c3)c2cc1NC(=O)/C=C/CN(C)C` [HKI-357], for which the “Cell Viability” value is on record as 50.2885% with Colon cancer organoid [1] (setting [4]); 47.1207% in the assay on Colon cancer organoid [1] (setting [5]); 7.299% in the assay on Colon cancer organoid [1] (setting [6]); 36.419% in the assay with Colon cancer organoid [1] (setting [7]); 25.3344% in the assay on Colon cancer organoid [2] (setting [4]); 46.9424% in the assay on Colon cancer organoid [2] (setting [5]). Besides, the “Cell Viability” value with Colon cancer organoid [2] (setting [6]) came to 1.402%; with Colon cancer organoid [2] (setting [7]) it was 33.5455%; in the assay with Colon cancer organoid [3] (setting [4]) it was 16.8896%; in the assay on Colon cancer organoid [3] (setting [5]), 39.6819%; in the assay on Colon cancer organoid [3] (setting [6]), 6.232%; with Colon cancer organoid [3] (setting [7]), 45.0211%.
Consider `CCN1CCN(c2ccc(Nc3cc(N(C)C(=O)Nc4c(Cl)c(OC)cc(OC)c4Cl)ncn3)cc2)CC1` [INFIGRATINIB], for which the “Cell Viability” value in the assay with Colon cancer organoid [1] (setting [4]) was determined as 101.104%; in the assay with Colon cancer organoid [1] (setting [5]), 52.242%; with Colon cancer organoid [1] (setting [6]) it was 73.2403%; in the assay with Colon cancer organoid [1] (setting [7]), 44.318%; with Colon cancer organoid [2] (setting [4]) it was 13.9667%; in the assay on Colon cancer organoid [2] (setting [5]) it was 230.084%. Besides, the “Cell Viability” value amounted to 45.8266% in the assay on Colon cancer organoid [2] (setting [6]); 126.071% in the assay with Colon cancer organoid [2] (setting [7]); 0.6967% with Colon cancer organoid [3] (setting [4]); 125.024% with Colon cancer organoid [3] (setting [5]); 12.6822% in the assay with Colon cancer organoid [3] (setting [6]); 113.181% with Colon cancer organoid [3] (setting [7]).
With `Cc1c(Oc2ccc(F)cc2)c(OC(C)C)nn1-c1ccc(C2CC2)cn1` [IPP/CNRS-A019], the “Cell Viability” value was determined as 91.1919% in the assay on Colon cancer organoid [1] (setting [4]); 118.396% in the assay on Colon cancer organoid [1] (setting [5]); 98.5803% in the assay on Colon cancer organoid [1] (setting [6]); 101.782% in the assay on Colon cancer organoid [1] (setting [7]); 97.1985% in the assay on Colon cancer organoid [2] (setting [4]); 110.863% with Colon cancer organoid [2] (setting [5]). The “Cell Viability” value came to 115.046% in the assay with Colon cancer organoid [2] (setting [6]); 92.4816% with Colon cancer organoid [2] (setting [7]); 92.46% in the assay on Colon cancer organoid [3] (setting [4]); 90.9232% in the assay with Colon cancer organoid [3] (setting [5]); 83.1676% in the assay with Colon cancer organoid [3] (setting [6]); 103.472% in the assay with Colon cancer organoid [3] (setting [7]).
For the compound `COCCc1ccc(-c2c(C)nc3c(N4CCOCC4)ccnn23)cn1` [JNJ-42396302], the “Cell Viability” value in the assay with Colon cancer organoid [1] (setting [4]) was 126.017%; in the assay on Colon cancer organoid [1] (setting [5]) it was 102.271%; with Colon cancer organoid [1] (setting [6]), 117.378%; with Colon cancer organoid [1] (setting [7]), 103.223%; with Colon cancer organoid [2] (setting [4]), 101.077%; in the assay on Colon cancer organoid [2] (setting [5]) it was 99.3561%. The “Cell Viability” value with Colon cancer organoid [2] (setting [6]) is recorded as 103.596%; in the assay on Colon cancer organoid [2] (setting [7]) it was 90.5469%; in the assay on Colon cancer organoid [3] (setting [4]) it was 95.3565%; in the assay with Colon cancer organoid [3] (setting [5]) it was 88.7666%; with Colon cancer organoid [3] (setting [6]), 124.422%; with Colon cancer organoid [3] (setting [7]) it was 103.43%.
Consider `COc1nc2ccc([C@@](O)(c3ccccc3)C3CCN(C(C)=O)CC3)cc2c(Cl)c1Cc1ccc(-n2cccn2)cc1` [JNJ-54119936], for which the “Cell Viability” value in the assay on Colon cancer organoid [1] (setting [4]) is 65.101%; in the assay on Colon cancer organoid [1] (setting [5]), 118.395%; with Colon cancer organoid [1] (setting [6]), 94.7218%; in the assay on Colon cancer organoid [1] (setting [7]) it was 120.218%; in the assay with Colon cancer organoid [2] (setting [4]), 91.6435%; in the assay on Colon cancer organoid [2] (setting [5]), 104.692%. The “Cell Viability” value in the assay on Colon cancer organoid [2] (setting [6]) is on record as 80.3234%; in the assay with Colon cancer organoid [2] (setting [7]), 104.355%; with Colon cancer organoid [3] (setting [4]), 98.9754%; in the assay on Colon cancer organoid [3] (setting [5]), 75.6952%; with Colon cancer organoid [3] (setting [6]), 103.766%; with Colon cancer organoid [3] (setting [7]), 113.997%.
As to `CC(=O)Nc1ncc(CN2CCC[C@H](Cc3cc(C)nc(C)c3)C2)s1` [JNJ-65355394], the “Cell Viability” value with Colon cancer organoid [1] (setting [4]) was found to be 88.5022%; in the assay with Colon cancer organoid [1] (setting [5]), 103.797%; in the assay on Colon cancer organoid [1] (setting [6]), 76.2761%; in the assay with Colon cancer organoid [1] (setting [7]), 119.778%; in the assay with Colon cancer organoid [2] (setting [4]) it was 87.2976%; in the assay on Colon cancer organoid [2] (setting [5]), 97.4656%. Further, the “Cell Viability” value is recorded as 96.7484% in the assay with Colon cancer organoid [2] (setting [6]); 85.3088% with Colon cancer organoid [2] (setting [7]); 144.109% in the assay with Colon cancer organoid [3] (setting [4]); 117.923% in the assay on Colon cancer organoid [3] (setting [5]); 95.1702% in the assay on Colon cancer organoid [3] (setting [6]); 105.247% in the assay on Colon cancer organoid [3] (setting [7]).
Turning to `CC(=O)Nc1nc(CN2CCC[C@H](Cc3cc(C)nc(C)c3)C2)cs1` [JNJ-73924149], the “Cell Viability” value with Colon cancer organoid [1] (setting [4]) was found to be 90.3874%; with Colon cancer organoid [1] (setting [5]), 105.251%; in the assay on Colon cancer organoid [1] (setting [6]), 100.726%; with Colon cancer organoid [1] (setting [7]), 118.221%; in the assay with Colon cancer organoid [2] (setting [4]), 81.3438%; in the assay on Colon cancer organoid [2] (setting [5]), 100.385%. Besides, the “Cell Viability” value was 108.387% with Colon cancer organoid [2] (setting [6]); 92.0646% in the assay with Colon cancer organoid [2] (setting [7]); 110.779% in the assay with Colon cancer organoid [3] (setting [4]); 72.9092% in the assay with Colon cancer organoid [3] (setting [5]); 164.947% in the assay with Colon cancer organoid [3] (setting [6]); 124.842% with Colon cancer organoid [3] (setting [7]).
`N#CN1CC[C@@H](C(=O)Nc2nc3c(s2)CN(C(=O)CN=[N+]=[N-])CC3)C1` [JYQ88]: the “Cell Viability” value with Colon cancer organoid [1] (setting [4]) is 63.8809%; in the assay on Colon cancer organoid [1] (setting [5]), 84.2967%; in the assay with Colon cancer organoid [1] (setting [6]), 72.0417%; in the assay with Colon cancer organoid [1] (setting [7]), 77.9243%; in the assay with Colon cancer organoid [2] (setting [4]), 85.6014%; in the assay on Colon cancer organoid [2] (setting [5]), 100.681%. Besides, the “Cell Viability” value in the assay on Colon cancer organoid [2] (setting [6]) is recorded as 114.259%; with Colon cancer organoid [2] (setting [7]), 88.3695%; with Colon cancer organoid [3] (setting [4]) it was 72.1963%; with Colon cancer organoid [3] (setting [5]) it was 58.5555%; in the assay on Colon cancer organoid [3] (setting [6]) it was 71.7367%; with Colon cancer organoid [3] (setting [7]) it was 79.6546%.
As for `CNC(=N)NCCC[C@H](NC(=O)[C@H](CC(C)C)NC(=O)NNC(=O)[C@H](Cc1ccccc1)NC(=O)[C@H](CO)NC(=O)[C@H](CC(N)=O)NC(=O)[C@@H](Cc1ccncc1)NC(=O)[C@H](N)Cc1ccc(O)cc1)C(=O)N[C@@H](Cc1ccccc1)C(N)=O` [KISS1-305] (H-[dY][d4Pal]NSF[azaGly]L[Arg(Me)]F-NH2), the “Cell Viability” value is given as 118.72% with Colon cancer organoid [1] (setting [4]); 125.679% with Colon cancer organoid [1] (setting [5]); 103.004% with Colon cancer organoid [1] (setting [6]); 99.3377% in the assay with Colon cancer organoid [1] (setting [7]); 143.349% in the assay on Colon cancer organoid [2] (setting [4]); 104.877% in the assay on Colon cancer organoid [2] (setting [5]). The “Cell Viability” value in the assay with Colon cancer organoid [2] (setting [6]) is given as 85.2761%; in the assay with Colon cancer organoid [2] (setting [7]), 111.321%; with Colon cancer organoid [3] (setting [4]), 104.031%; with Colon cancer organoid [3] (setting [5]), 118.904%; with Colon cancer organoid [3] (setting [6]) it was 114.891%; in the assay on Colon cancer organoid [3] (setting [7]) it was 119.718%.
